The source of these data is patent US5504106A, “Phenyl amidine alkanoic acids and lactones useful as platelet aggregation inhibitors” (G. D. Searle & Co., priority 1994, dated 1996).

Values joined by “and” are separate entries in the source; they are usually repeats but may differ in a detail not shown here. Equal entries are not always repeated. Structures can show the parent of a compound that is named as a salt.

For the assay, the system named is Dog PRP. The experiment in a line: In-Vitro Platelet Aggregation in PRP (ADP-induced). The class given is cell-based. Particulars: dog platelet-rich plasma, ADP-induced aggregation (50 μm final concentration), 37° C.; for Dog PRP % Inhibition: Test Concentration 1 × 10^-5; for IC50: 1 minute preincubation, linear regression of dose response curve. As for the experimental part: Healthy male or female dogs were fasted for 8 hours prior to drawing blood; then 30 ml whole blood was collected using a butterfly needle and 30 cc plastic syringe with 3 ml of 0.129M buffered sodium citrate (3.8%). The syringe was rotated carefully as blood was drawn to mix the citrate. Platelet-rich plasma (PRP) was prepared by centrifugation at 975× g for 3.17 minutes at room temperature, allowing the centrifuge to coast to a stop without braking. The PRP was removed from the blood with a plastic pipette and placed in a plastic capped, 50 ml Corning conical sterile centrifuge tube which was held at room temperature. Platelet poor plasma (PPP) was prepared by centrifuging the remaining blood at 2000× g for 15 minutes at room temperature allowing the centrifuge to coast to a stop without braking. The PRP was adjusted with PPP to a count of 2-3×10^8 platelets per ml. 400 μl of the PRP preparation and 50 μl of the compound to be tested as prepared below or saline were preincubated for 1 minute at 37° C. in a BioData aggregometer (BioData, Horsham, Pa.). 50 μl of adenosine 5'diphosphate (ADP) (50 μm final concentration) was added to the cuvettes and the aggregation was monitored for 1 minute. The test compounds were prepared by the following procedure. The compound was dissolved in 100% ethanol at a concentration of 10^-2 M. It was vortexed for 30 seconds followed by the addition of 1.1 equivalents of 1N NaOH. This solution was mixed for 30 minutes at room temperature. After the 30 minutes of mixing, the compound solution was brought to a working concentration of 10^-3 M with double distilled water. All compounds are tested in duplicate. Results are calculated as follows:
Percent of control= (maximal OD minus initial OD of compound) divided by (maximal OD minus initial OD of control saline)!×100. The % inhibition=100-(percent of control).
The assay results for the representative compounds of the present invention are set forth in Table A. Also in Table A, two readings given in a single box indicate that two trials, rather than a single trial, were run for that particular compound in that particular assay.

[1] abbreviates: Canis lupus familiaris, Platelet.

As to `N=C(N)c1ccc(CCCC[C@@H]2C[C@@H](c3ccccc3)CC(=O)O2)cc1` (relative stereo) [(±)-trans-6-4-4-(Aminoimino)phenyl)butyl!tetrahydro-4-phenyl-2H-pyran-2-one, trifluoroacetate], the “Dog PRP % Inhibition” value came to 7%.
Take `C=C[C@@H]1CC(=O)O[C@H](CCCCc2ccc(C(=N)N)cc2)C1` (relative stereo) [(±)-cis-6-4-(4-(Aminoiminomethyl)phenyl)butyl!-4-ethenyl-tetrahydro-2H-pyran-2-one, trifluoroacetate]: the “Dog PRP % Inhibition” value came to 100%. Further, under setting [1], the IC50 (usually the concentration needed to halve the response being measured) is 2.6 µM.
`N=C(N)c1ccc(NC(=O)CC[C@@H]2C[C@H](O)CC(=O)O2)cc1` [N-4-(aminoiminomethyl)phenyl!3,4,5,6-tetrahydro-6-oxo-4S-hydroxy-2H-pyran-2R-propanamide, trifluoroacetate] came in with an IC50 under setting [1] of 0.35 µM.
For `N=C(N)c1ccc(CCCC[C@@H]2C[C@H](c3cccnc3)CC(=O)O2)cc1` (relative stereo) [(±)-cis-6-4-4-(Aminoiminomethyl)phenyl)butyl!tetrahydro-4-(3-pyridinyl)-2H-pyran-2-one, ditrifluoroacetate], the “Dog PRP % Inhibition” value was 100%. This molecule also gave an IC50 under setting [1] of 0.16 µM.
As to `N=C(N)c1ccc(NC(=O)CCC2CCCC(=O)O2)cc1` (centres unmarked) [N-4-(aminoiminomethyl)phenyl!tetrahydro-6-oxo-2H-pyran-2-propanamide, trifluoroacetate], under setting [1], the IC50 was 2.9 µM.
For `N=C(N)c1ccc(CCCC[C@@H]2C[C@H](c3ccccc3)CC(=O)O2)cc1` (relative stereo) [(±)-cis-6-4-4-(Aminoiminomethyl)phenyl)butyl!tetrahydro-4-phenyl-2H-pyran-2-one, trifluoroacetate], the “Dog PRP % Inhibition” value is 100%. The midpoint of inhibition under setting [1], the IC50, lay at 4.2 µM.
For `COC(=O)CC1CC(=O)OC(CCCCc2ccc(C(=N)N)cc2)C1` (racemic) [(±)-cis-methyl 2-4-4-(aminoiminomethyl)phenyl!butyl!tetrahydro-6-oxo-2H-pyran-4-acetate], 4 µM corresponded to half-maximal inhibition (IC50) and the “Dog PRP % Inhibition” value turned out to be 100%.
Take `N=C(N)c1ccc(CCCCC2CCCC(=O)O2)cc1` (racemic) [6-4-(4-(aminoiminomethyl)phenyl)butyl)tetrahydro-2H -pyran-2-one]: the “Dog PRP % Inhibition” value is 29% and 38%.
As to `N=C(N)c1ccc(CCCC[C@@H]2C[C@H](CS(=O)(=O)c3ccccc3)CC(=O)O2)cc1` (relative stereo) [(±)-cis-6-4-4-(aminoiminomethyl)phenyl!butyl!tetrahydro-4-(phenylsulfonyl)methyl!-2H-pyran-2-one, trifluoroacetate], the “Dog PRP % Inhibition” value amounted to 100%. Moreover, under setting [1], the concentration for half-maximal inhibition (IC50) turned out to be 2.6 µM.
Consider `N=C(N)c1ccc(CCCC[C@@H]2C[C@H](O)CC(=O)O2)cc1` (relative stereo) [(±)-cis-6-4-4-Aminoiminomethyl)phenyl!butyl!tetrahydro-4-hydroxy-2H-pyran-2-one, trifluoroacetate], for which 4.1 µM corresponded to half-maximal inhibition (IC50); the “Dog PRP % Inhibition” value is 89% and 96%. Under setting [1], this molecule gave an IC50 of 5.3 µM.
On to `N=C(N)c1ccc(CCCC[C@@H]2C[C@@H](O)CC(=O)O2)cc1` (relative stereo) [(±)-trans-6-4-4-(Aminoiminomethyl)phenyl!butyl!tetrahydro-4-hydroxy-2H-pyran-2-one, trifluoroacetate], for which the “Dog PRP % Inhibition” value was 36%.
In the case of `C[C@@H]1CC(=O)O[C@H](CCCCc2ccc(C(=N)N)cc2)C1` (relative stereo) [(±)-cis-6-4-4-(Aminoiminomethyl)phenyl)butyl!tetrahydro-4-methyl-2H-pyran-2-one, trifluoroacetate], the “Dog PRP % Inhibition” value amounted to 74%. Moreover, the IC50 under setting [1] turned out to be 7.1 µM.
